Source: patent US4959363A, “Quinolonecarboxamide compounds, their preparation and use as antivirals” (Sterling Drug Inc., priority 1989, dated 1990)

Key:
[1] = In vitro maximum tolerated dose (MTL), Vero cells; assay type: cell-based, African Green Monkey; details: monkey, In Vitro
[2] = parameters: species or system albino mice; details: mouse
[3] = system: herpes simplex virus; assay: In Vivo - Intravaginal Herpes Virus Infection in Mice; parameters: species or system albino mice; details: Mus musculus, 336 h, oral or intraperitoneal, b.i.d. 5 days, NA = Not active at dose levels tested, read-out: In Vivo MED (Minimum effective dose)
Description: In Vivo - Intravaginal Herpes Virus Infection in Mice
Approximately 1 hr. prior to infection, the vaginas of 15 gm albino mice were swabbed with cotton saturated with 0.1 N NaOH to remove vaginal secretions and to irritate the vaginal mucosa slightly. At the proper time, 0.05 ml of an appropriate dose of herpes simplex virus was placed deep in the vagina. Starting 2.5 hrs. prior to infection, the mice were medicated either orally or intraperitoneally. Medication was continued daily for a total of 5 days on a b.i.d. regimen. The test was terminated after 14 days. A comparison of the number of surviving mice and/or extension of survival was made at the end of the test. The criterion for activity was a statistically significant extension of the average survival time of the test group over that of the control mice in two experiments.

Structure (SMILES)	MNTC at 72 h ([1]; vero cells) [µg/mL]	In Vivo MTL (Maximum tolerated dose) [2]	MNTC at 72 h ([1]; Vero cells) [µg/mL]	minimal effective dose [3] [mg/kg/day]
CCn1cc(C(=O)NO)c(=O)c2ccc(-c3ccncc3)cc21 [Example 30, 1-Ethyl-1,4-dihydro-N-hydroxy-4-oxo-7-(4-pyridinyl)-3quinolinecarboxamide]	25	100	–	–
NC(=O)c1cn(-c2ccc(F)cc2)c2cc(-c3ccccc3)ccc2c1=O [Example 44, 1,4-Dihydro-1-(4-fluorophenyl)-4-oxo-7-phenyl-3-quinolinecarboxamide]	12.5	> 200	–	–
NC(=O)c1cn(-c2ccc(F)cc2F)c2cc(-c3ccncc3)ccc2c1=O [Example 15, 1-(2,4-Difluorophenyl)-1,4-dihydro-4-oxo-7-(4-pyridinyl)-3-quinolinecarboxamide]	3.1	< 25	–	–
CCCCCn1cc(C(N)=O)c(=O)c2ccc(-c3ccncc3)cc21 [Example 26, 1,4-Dihydro-4-oxo-1-pentyl-7-(4-pyridinyl)-3-quinolinecarboxamide]	–	–	6.2	–
CCn1cc(C(N)=O)c(=O)c2ccc(-c3cccnc3)cc21 [Example 27b, 1-Ethyl-1,4-dihydro-4-oxo-7-(3-pyridinyl)-3-quinolinecarboxamide]	50	100	–	–
NC(=O)c1cn(-c2ccc(Br)cc2)c2cc(-c3ccncc3)ccc2c1=O [Example 31, 1-(4-Bromophenyl)-1,4-dihydro-7-(4-pyridinyl)-4-oxo-3quinolinecarboxamide]	> 12.5	50	–	50
CCn1cc(C(N)=O)c(=O)c2ccc(-c3ccccn3)cc21 [Example 20, 1-Ethyl-1,4-dihydro-4-oxo-7-(2-pyridinyl)-3-quinolinecarboxamide]	25	100	–	–
Cn1c(O)c(C(N)=O)c(=O)c2ccc(-c3ccncc3)cc21 [Example 39b, 1,4-Dihydro-2-hydroxy-1-methyl-4-oxo-7-(4-pyridinyl)3-quinolinecarboxamide]	3.1	150	–	150 to 200
NC(=O)c1cn(Cc2ccc(Cl)c(Cl)c2)c2cc(-c3ccncc3)ccc2c1=O [Example 12, 1-(3,4-Dichlorobenzyl)-1,4-dihydro-4-oxo-7-(4-pyridinyl)-3-quinolinecarboxamide]	> 100	> 100	–	–
CCn1cc(C(N)=O)c(=O)c2ccc(-c3cc(C)nc(C)c3)cc21 [Example 7, 1-Ethyl-1,4-dihydro-4-oxo-7-(2,6-dimethyl-4-pyridinyl)-3quinolinecarboxamide]	12.5	25	–	–
NC(=O)c1cn(-c2cccc(F)c2)c2cc(-c3ccncc3)ccc2c1=O [Example 46e, 1,4-Dihydro-1-(3-fluorophenyl)-4-oxo-7-(4-pyridinyl)3-quinolinecarboxamide]	> 6.25	50	–	25 to 50
NC(=O)c1c(O)n(-c2ccc(F)cc2)c2cc(-c3ccncc3)ccc2c1=O [Example 47e, 1,4-Dihydro-1-(4-fluorophenyl)-2-hydroxy-7-(4-pyridinyl)4-oxo-3-quinolinecarboxamide]	> 100	–	–	–
CCn1c(N)c(C(N)=O)c(=O)c2ccc(-c3ccncc3)cc21 [Example 40b, 2-Amino-1,4-dihydro-1-ethyl-4-oxo-7-(4-pyridinyl)-3quinolinecarboxamide]	> 12.5	> 100	–	–
NC(=O)c1cn(-c2ccccc2F)c2cc(-c3ccncc3)ccc2c1=O [Example 34, 1,4-Dihydro-1-(2-fluorophenyl)-7-(4-pyridinyl)-4-oxo-3quinolinecarboxamide]	1.6	100	–	–
CCCCn1cc(C(N)=O)c(=O)c2ccc(-c3ccncc3)cc21 [Example 17, 1-Butyl-1,4-dihydro-4-oxo-7-(4-pyridinyl)-3-quinolinecarboxamide]	6.2	50	–	–
NC(=O)c1cn(-c2ccc(F)cc2)c2cc(-c3ccncc3)c(F)cc2c1=O [Example 48c]	6.25	> 100	–	–
CCCn1cc(C(N)=O)c(=O)c2ccc(-c3ccncc3)cc21 [Example 18, 1,4-Dihydro-4-oxo-1-propyl-7-(4-pyridinyl)-3-quinolinecarboxamide]	6.25	–	–	–
CCn1cc(C(N)=O)c(=O)c2ccc(-c3ccno3)cc21 [Example 24c, 1-Ethyl-1,4-dihydro-7-(5-isoxazolyl)-4-oxo-3-quinolinecarboxamide]	12.5	> 200	–	–

Structure (SMILES)	MNTC at 72 h ([1]; vero cells) [µg/mL]	In Vivo MTL (Maximum tolerated dose) [2]	MNTC at 72 h ([1]; Vero cells) [µg/mL]	minimal effective dose [3] [mg/kg/day]
CCn1c(=O)c(C(N)=O)c(O)c2ccc(-c3ccncc3)cc21 [Example 38c, 1-Ethyl-1,2-dihydro-4-hydroxy-2-oxo-7-(4-pyridinyl)-3quinolinecarboxamide]	> 12.5	100	–	100 to 200
Cc1ccc(-n2cc(C(N)=O)c(=O)c3ccc(-c4ccncc4)cc32)cc1C [Example 13, 1,4-Dihydro-1-(3,4-dimethylphenyl)-4-oxo-7-(4-pyridinyl)-3-quinolinecarboxamide]	> 100	–	–	–
C=CCn1cc(C(N)=O)c(=O)c2ccc(-c3ccncc3)cc21 [Example 19, 1,4-Dihydro-4-oxo-1-(2-propenyl)-7-(4-pyridinyl)-3-quinolinecarboxamide]	6.25	< 50	–	–
CC(C)(C)c1ccc(-n2cc(C(N)=O)c(=O)c3ccc(-c4ccncc4)cc32)cc1 [Example 9, 1-[4-(1,1-Dimethylethyl)phenyl]-1,4-dihydro-4-oxo-7-(4-pyridinyl)-3-quinolinecarboxamide]	> 25	–	–	–
Cc1ccc(-n2cc(C(N)=O)c(=O)c3ccc(-c4ccncc4)cc32)cc1 [Example 33, 1,4-Dihydro-1-(4-methylphenyl)-7-(4-pyridinyl)-4-oxo-3quinolinecarboxamide]	> 25	50	–	–
NC(=O)c1cn(-c2ccccc2)c2cc(-c3ccncc3)ccc2c1=O [Example 21, 1,4-Dihydro-4-oxo-1-phenyl-7-(4-pyridinyl)-3-quinolinecarboxamide]	6.25	–	–	–
Cc1cc(-c2ccc3c(=O)c(C(N)=O)cn(-c4ccc(F)cc4)c3c2)on1 [Example 22f]	> 100	> 200	–	–
CCn1cc(C(N)=O)c(=O)c2cc(F)c(-c3ccncc3)cc21 [Example 25, 1-Ethyl-6-fluoro-1,4-dihydro-4-oxo-7-(4-pyridinyl)-3quinolinecarboxamide]	> 100	–	–	–
Cn1cc(C(N)=O)c(=O)c2ccc(-c3ccncc3)cc21 [Example 16, 1,4-Dihydro-1-methyl-4-oxo-7-(4-pyridinyl)-3-quinolinecarboxamide]	> 25	25	–	–
NC(=O)c1cn(-c2ccc(C(F)(F)F)cc2)c2cc(-c3ccncc3)ccc2c1=O [Example 35, 1,4-Dihydro-7-(4-pyridinyl)-1-(4-trifluoromethylphenyl)-4-oxo-3-quinolinecarboxamide]	> 100	50	–	–
COc1ccc(-n2cc(C(N)=O)c(=O)c3ccc(-c4ccncc4)cc32)cc1 [Example 8, 1,4-Dihydro-1-(4-methoxyphenyl)-4-oxo-7-(4-pyridinyl)-3quinolinecarboxamide]	> 25	50	–	–
CCn1cc(C(=O)NN)c(=O)c2ccc(-c3ccncc3)cc21 [Example 29, 1-Ethyl-1,4-dihydro-4-oxo-7-(4-pyridinyl)-3-quinolinecarboxylic acid hydrazide]	50	100	–	–
NC(=O)c1cn(-c2ccc(Cl)cc2)c2cc(-c3ccncc3)ccc2c1=O [Example 32, 1-(4-Chlorophenyl)-1,4-dihydro-7-(4-pyridinyl)-4-oxo-3quinolinecarboxamide]	–	–	> 25	50
NC(=O)c1cn(C2CC2)c2cc(-c3ccncc3)ccc2c1=O [Example 11, 1-Cyclopropyl-1,4-dihydro-4-oxo-7-(4-pyridinyl)-3-quinolinecarboxamide]	25	25	–	–
O=C(NCN1CCCCC1)c1cn(-c2ccc(F)cc2)c2cc(-c3ccncc3)ccc2c1=O [Example 5, N-(1-Piperidinylmethyl)-1-(4-fluorophenyl)-1,4-dihydro-4-oxo-7-(4-pyridinyl)-3-quinolinecarboxamide]	> 12.5	–	–	–
O=C(NCN1CCOCC1)c1cn(-c2ccc(F)cc2)c2cc(-c3ccncc3)ccc2c1=O [Example 4, N-(4-Morpholinylmethyl)-1-(4-fluorophenyl)-1,4-dihydro-4-oxo-7-(4-pyridinyl)-3-quinolinecarboxamide]	> 12.5	–	–	–
CCn1cc(C(=O)NN)c(=O)c2ccc(-c3ccccc3)cc21 [Example 36, 1-Ethyl-1,4-dihydro-4-oxo-7-phenyl-3-quinolinecarboxylic acid hydrazide]	25	> 200	–	–
CCn1cc(C(N)=O)c(=O)c2ccc(-c3cc(C)no3)cc21 [Example 23d, 1-Ethyl-1,4-dihydro-7-(3-methyl-5-isoxazolyl)-4-oxo-3-quinolinecarboxamide]	> 100	> 200	–	–
